The values that follow come from DBAASP.

What all share (test): ≥ marks a high value that may be exact or a test limit, other limits are often not marked, values filed in µg/mL are converted to µM
For assay [1], the system named is Bacillus subtilis KCTC 3068.
For assay [2], the system named is Escherichia coli KCTC 1682.
For assay [3], the system named is Pseudomonas aeruginosa KCTC 1637.
The subject of assay [4] is Salmonella typhimurium KCTC 1926.
Assay [5] deals with Staphylococcus aureus KCTC 1621.
In assay [6] the test system is Staphylococcus epidermidis KCTC 1917.
In assay [7] the test system is Candida albicans NCYC 1467.
Assay [8] deals with Staphylococcus aureus NCTC 10788.
The test system of assay [9] is Escherichia coli NCTC 10418.
The next assay relates to Enterococcus faecium.
The test system of a further assay is Staphylococcus aureus.

Each structure is given as a SMILES string. Values after ≈ are worked out from the molar mass of the structure shown.

As usually defined, the MIC is the lowest concentration found to suppress growth. Regarding `CC[C@H](C)[C@H](NC(=O)[C@H](CCCCN)NC(=O)[C@H](CC(C)C)NC(=O)[C@H](CC(C)C)NC(=O)[C@@H](N)CCCCN)C(=O)N[C@H](C(=O)N[C@H](C(=O)N[C@H](C(=O)N[C@@H](CCCCN)C(=O)N[C@H](C(=O)N[C@@H](CC(C)C)C(=O)N[C@@H](CCCCN)C(N)=O)C(C)C)[C@@H](C)CC)C(C)C)C(C)C` [KLLKIVVIKVLK], the MIC in assay [1] stood at 8.97 µM (≈ 12.5 µg/mL); in assay [2], 8.97 µM (≈ 12.5 µg/mL); in [3], 8.97 µM (≈ 12.5 µg/mL); in assay [4] it was 4.48 µM (≈ 6.25 µg/mL); in assay [5], 8.97 µM (≈ 12.5 µg/mL); in assay [6], 8.97 µM (≈ 12.5 µg/mL).

As to `CC[C@H](C)[C@H](NC(=O)[C@H](C)NC(=O)[C@H](CC(C)C)NC(=O)[C@@H]1CCCN1C(=O)[C@@H](NC(=O)[C@H](CCSC)NC(=O)CNC(=O)[C@H](CC(C)C)NC(=O)[C@@H](N)CC(C)C)[C@@H](C)CC)C(=O)N[C@@H](CO)C(=O)N[C@@H](C)C(=O)N[C@H](C(=O)N[C@@H](CO)C(=O)N[C@@H](CO)C(=O)N[C@@H](CC(C)C)C(=O)N[C@@H](CO)C(=O)N[C@@H](CCCCN)C(=O)N[C@@H](CC(C)C)C(N)=O)[C@@H](C)CC` [LLGMIPLAISAISSLSKL], the minimum inhibitory concentration (MIC) in assay [7] is at least 35 µM; in assay [8] it was 17.5 µM (≈ 32 µg/mL).

For the compound `CC[C@H](C)[C@H](NC(=O)[C@H](CC(=O)O)NC(=O)[C@H](CCCCN)NC(=O)[C@H](Cc1c[nH]c2ccccc12)NC(=O)[C@H](CC(C)C)NC(=O)[C@H](C)N)C(=O)N[C@@H](CC(C)C)C(=O)N[C@@H](CCCCN)C(=O)N[C@@H](CC(N)=O)C(=O)N[C@@H](CC(C)C)C(=O)N[C@@H](CC(C)C)C(=O)N[C@@H](CCCCN)C(=O)N[C@@H](C)C(=O)N[C@@H](C)C(=O)N[C@@H](CC(C)C)C(=O)N[C@@H](CC(N)=O)C(=O)N[C@@H](CCC(=O)O)C(=O)N[C@H](C(=O)N[C@@H](CC(N)=O)C(=O)N[C@@H](CCC(N)=O)C(=O)N[C@H](C(=O)N[C@H](C(=O)N[C@@H](CCC(N)=O)C(N)=O)C(C)C)[C@@H](C)CC)[C@@H](C)CC` [ALWKDILKNLLKAALNEINQIVQ], the results for the minimum inhibitory concentration (MIC) in [7], in [9] and in assay [8] were 16 µM (≈ 42.4 µg/mL), 16 µM (≈ 42.4 µg/mL) and 8 µM (≈ 21.2 µg/mL), respectively.

As for `C[C@@H](O)[C@H](NC(=O)[C@H](Cc1c[nH]c2ccccc12)NC(=O)[C@H](Cc1c[nH]c2ccccc12)NC(=O)[C@@H](NC(=O)[C@H](CCCCN)NC(=O)[C@H](Cc1c[nH]c2ccccc12)NC(=O)[C@H](Cc1c[nH]c2ccccc12)NC(=O)[C@@H](NC(=O)[C@H](CCCCN)NC(=O)[C@@H](N)CCCCN)[C@@H](C)O)[C@@H](C)O)C(=O)N[C@@H](CCCCN)C(=O)N[C@@H](Cc1c[nH]c2ccccc12)C(=O)O` [KKTWWKTWWTKW], the MIC was 2 µM (≈ 3.53 µg/mL) in assay [1]; 4 µM (≈ 7.06 µg/mL) in [2]; 8 µM (≈ 14.1 µg/mL) in assay [3]; 4 µM (≈ 7.06 µg/mL) in assay [4]; 4 µM (≈ 7.06 µg/mL) in [5]; 4 µM (≈ 7.06 µg/mL) in assay [6].

`NC(=O)[C@H](CCCN=C(N)N)NC(=O)[C@H](CCCN=C(N)N)NC(=O)[C@H](Cc1c[nH]c2ccccc12)NC(=O)[C@@H]1CCCN1C(=O)[C@H](Cc1c[nH]c2ccccc12)NC(=O)[C@H](Cc1c[nH]c2ccccc12)NC(=O)[C@@H]1CCCN1C(=O)[C@H](Cc1c[nH]c2ccccc12)NC(=O)[C@H](CCCN=C(N)N)NC(=O)[C@@H](N)CCCN=C(N)N` [RRWPWWPWRR]: the MIC in assay [1] was found to be 1.26 µM (≈ 2 µg/mL); in the assay with Enterococcus faecium, 1.79 µM (≈ 2.83 µg/mL); in [2], 1.26 µM (≈ 2 µg/mL); in assay [4], 2.53 µM (≈ 4 µg/mL); in assay [5], 1.26 µM (≈ 2 µg/mL); in the assay on Staphylococcus aureus, 2.53 µM (≈ 4 µg/mL).
